Measurements taken from article PMC10139140, “Synthesis of Novel 2-(Cyclopentylamino)thiazol-4(5H)-one Derivatives with Potential Anticancer, Antioxidant, and 11β-HSD Inhibitory Activities” (International Journal of Molecular Sciences, 2023).
Each block holds one molecule with its values, some of them ahead of it.

Columns and labels:
[1] = test system: human colon carcinoma (Caco-2); assay: MTS metabolic activity assay, Caco-2 cells; type: cell-based; settings: 72 h; for cell viability, decreases to: Caco-2, higher concentrations, range given for the most effective substances together; for viability at 10 µM / viability at 20 µM / viability at 50 µM / viability at 100 µM / viability at 200 µM / viability at 300 µM / viability at 500 µM: Homo sapiens, read-out: Cell metabolic activity (MTS), % of untreated control; for viability at 10 µM: Caco-2, 10 µM; for viability at 20 µM: Caco-2, 20 µM; for viability at 50 µM: Caco-2, 50 µM; for viability at 100 µM: Caco-2, 100 µM; for viability at 200 µM: Caco-2, 200 µM; for viability at 300 µM: Caco-2, 300 µM; for viability at 500 µM: Caco-2, 500 µM
Experimental: (§1) The BJ (CRL-2522), Caco-2 (HTB-37), PANC-1 (CRL-1469), U-118 MG (HTB-15), SK-MEL-30 (ACC 151), and MDA-MB-231 (HTB-26) cell lines were purchased from ATCC (Manassas, VA, USA) or DSMZ (Braunschweig, GERMANY). Cells were cultured in accordance with manufacturers' recommendations in a DMEM, MEM, or RPMI-1640 (Sigma, Saint Louis, MO, USA; Gibco, Waltham, MA, USA), supplemented with 10% FBS, except for Caco-2 (20%) (Thermo Fisher Scientific, Waltham, MA, USA) and 1% antibiotic mix solution (penicillin, streptomycin; Thermo Fisher Scientific, Waltham, MA, USA) in a humidified atmosphere with 5% CO2 at 37 °C. All cell lines were cultured in T75 cell culture flasks or cell culture dishes to reach 80–90% confluency and seeded at a standard density of 5 × 10^3 cells/0.32 cm^2, except for BJ cells at 2 × 10^3 cells/0.32 cm^2.
(§2) The MTS ((MTS: 3-(4,5-dimethylthiazol-2-yl)-5-(3-carboxymethoxyphenyl)-2-(4-sulfophenyl)-2H-tetrazolium)) assay was performed following previously reported method. Briefly, cells were seeded at a standard density into 96-well flat-bottom plates and incubated for 24 h, followed by the treatment. The various concentrations of compounds were prepared and treated for the next 72 h. MTS solution was added for 3h and incubated at standard conditions, protected from light. Finally, the absorbance was read at […] and 620 nm wavelengths using a Synergy H1 microplate reader (BioTek, Santa Clara, CA, USA). The results are presented as %, while untreated control cells were considered 100%.

[2] = test system: skin melanoma (SK-MEL-30); assay: MTS metabolic activity assay, SK-MEL-30 cells; type: cell-based; settings: Homo sapiens, 72 h, read-out: Cell metabolic activity (MTS), % of untreated control; for viability at 10 µM: SK-MEL-30, 10 µM; for viability at 20 µM: SK-MEL-30, 20 µM; for viability at 50 µM: SK-MEL-30, 50 µM; for viability at 100 µM: SK-MEL-30, 100 µM; for viability at 200 µM: SK-MEL-30, 200 µM; for viability at 300 µM: SK-MEL-30, 300 µM; for viability at 500 µM: SK-MEL-30, 500 µM
Experimental: as §1, §2

[3] = test system: human breast carcinoma (MDA-MB-231); assay: MTS metabolic activity assay, MDA-MB-231 cells; type: cell-based; settings: 72 h; for viability at 10 µM / viability at 20 µM / viability at 50 µM / viability at 100 µM / viability at 200 µM / viability at 300 µM / viability at 500 µM: Homo sapiens, read-out: Cell metabolic activity (MTS), % of untreated control; for viability at 10 µM: MDA-MB-231, 10 µM; for viability at 20 µM: MDA-MB-231, 20 µM; for viability at 50 µM: MDA-MB-231, 50 µM; for viability at 100 µM: MDA-MB-231, 100 µM; for viability at 200 µM: MDA-MB-231, 200 µM; for viability at 300 µM: MDA-MB-231, 300 µM; for viability at 500 µM: MDA-MB-231, 500 µM
Experimental: as §1, §2

BJ cells = assay: MTS metabolic activity assay, BJ cells; type: cell-based; settings: Homo sapiens, 72 h, read-out: Cell metabolic activity (MTS), % of untreated control
Experimental: as §1, §2

11β-HSD1 = molecular target: T1, 11β-HSD1 (Homo sapiens, UniProt P28845); assay: Inhibition of 11β-HSD1 (cortisone to cortisol, human liver microsomes, cortisol ELISA); type: biochemical
T1 construct: Human liver microsomes were used as a source of 11β-HSD1 enzyme; tissue XenoTech Lot No. 1410013; host or cells: pooled human liver microsomes, mixed gender
Experimental: The resulting solution with a final volume of 100 µL was incubated for 2.5 h at 37 °C. To stop the reaction, 10 µL of a 100 µM solution of 18β-glycyrrhetinic acid in PBS was added. The level of cortisol obtained in the reaction was measured by commercially available ELISA kit.
As a control, analogous tests without the addition of inhibitors were used. Half the inhibitory concentration (causing 50% reduction of cortisol or cortisone) was read from the chart.

glioma (U-118 MG) = assay: MTS metabolic activity assay, U-118 MG cells; type: cell-based; settings: 72 h; for viability at 10 µM / viability at 20 µM / viability at 50 µM / viability at 100 µM / viability at 200 µM / viability at 300 µM / viability at 500 µM: Homo sapiens, U-118-MG, U118-MG, read-out: Cell metabolic activity (MTS), % of untreated control
Experimental: as §1, §2

[4] = test system: human pancreatic carcinoma (PANC-1); assay: MTS metabolic activity assay, PANC-1 cells; type: cell-based; settings: for viability at 10 µM / viability at 20 µM / viability at 50 µM / viability at 100 µM / viability at 200 µM / viability at 300 µM / viability at 500 µM: Homo sapiens, 72 h, read-out: Cell metabolic activity (MTS), % of untreated control; for viability at 10 µM: PANC-1, 10 µM; for viability at 20 µM: PANC-1, 20 µM; for viability at 50 µM: PANC-1, 50 µM; for viability at 100 µM: PANC-1, 100 µM; for viability at 200 µM: PANC-1, 200 µM; for viability at 300 µM: PANC-1, 300 µM; for viability at 500 µM: PANC-1, 500 µM
Experimental: as §1, §2

11β-HSD2 = molecular target: T2, 11β-HSD2 (Homo sapiens, UniProt P80365); assay: Inhibition of 11β-HSD2 (cortisol to cortisone, human microsomes, cortisol ELISA); type: biochemical; settings: 2.5 h, 37 °C
T2 construct: Human liver microsomes were used as a source of 11β-HSD2 enzyme; tissue XenoTech Lot No. 1710160; host or cells: human kidney microsomes, mixed gender (method text says human liver microsomes)
T2 sequence (P80365 1-405): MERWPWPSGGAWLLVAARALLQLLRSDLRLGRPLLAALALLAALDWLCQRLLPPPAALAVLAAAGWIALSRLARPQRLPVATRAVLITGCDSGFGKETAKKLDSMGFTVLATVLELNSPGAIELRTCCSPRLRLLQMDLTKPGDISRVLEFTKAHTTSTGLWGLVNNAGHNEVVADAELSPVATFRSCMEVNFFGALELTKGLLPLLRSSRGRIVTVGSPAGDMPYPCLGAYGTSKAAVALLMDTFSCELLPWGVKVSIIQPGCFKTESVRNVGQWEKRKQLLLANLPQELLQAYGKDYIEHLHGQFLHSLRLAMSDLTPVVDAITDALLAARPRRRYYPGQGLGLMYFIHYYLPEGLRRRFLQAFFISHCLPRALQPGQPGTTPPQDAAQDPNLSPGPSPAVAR
Experimental: The resulting solution with a final volume of 100 µL was incubated for 2.5 h at 37 °C. […] The level of unreacted cortisol was measured by a commercially available ELISA kit.

T1 sequence (P28845 whole entry): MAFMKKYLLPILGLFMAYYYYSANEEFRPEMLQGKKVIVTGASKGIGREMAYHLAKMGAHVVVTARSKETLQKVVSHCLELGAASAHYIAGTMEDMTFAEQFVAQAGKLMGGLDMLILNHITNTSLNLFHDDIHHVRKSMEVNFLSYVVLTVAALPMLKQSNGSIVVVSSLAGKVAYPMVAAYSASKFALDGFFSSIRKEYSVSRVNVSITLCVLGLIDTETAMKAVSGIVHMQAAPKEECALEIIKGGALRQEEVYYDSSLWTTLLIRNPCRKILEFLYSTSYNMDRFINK

IC50 (11β-HSD1): 70 ± 5 nM
% of 11β-HSD1 Inhibition 10 μM (11β-HSD1; 10 µM, 2.5 h, 37 °C): 90.49 ± 1.31%
inhibition at 10 µM (11β-HSD1; 10 µM, 2.5 h, 37 °C): 90%
inhibition at 10 µM (11β-HSD2): < 43%
SMILES: O=C1N=C(NC2CCCC2)SC12CCCCC2 [Compound 3h, 2-(cyclopentylamino)-1-thia-3-azaspiro[4.5]dec-2-en-4-one]
cell viability, decreases to [1]: 20–65%
viability at 10 µM [1]: 96.3%
viability at 20 µM [1]: 94.2%
viability at 50 µM [1]: 99.9%
viability at 100 µM [1]: 96.2%
viability at 200 µM [1]: 95.6%
viability at 300 µM [1]: 82.6%
viability at 500 µM [1]: 65.5%
viability at 10 µM [2]: 96.1%
viability at 20 µM [2]: 100%
viability at 50 µM [2]: 102%
viability at 100 µM [2]: 105%
viability at 200 µM [2]: 109%
viability at 300 µM [2]: 106%
viability at 500 µM [2]: 80.8%
viability at 10 µM [3]: 91.6%
viability at 20 µM [3]: 92.7%
viability at 50 µM [3]: 92.1%
viability at 100 µM [3]: 93.5%
viability at 200 µM [3]: 77.1%
viability at 300 µM [3]: 64.6%
viability at 500 µM [3]: 45.6%
cell viability, decreases to ([3]; MDA-MB-231, higher concentrations, range given for the most effective substances together): 20–65%
viability at 10 µM (BJ cells): 108%
viability at 20 µM (BJ cells): 106%
viability at 50 µM (BJ cells): 111%
viability at 100 µM (BJ cells): 118%
viability at 200 µM (BJ cells): 122%
viability at 300 µM (BJ cells): 115%
viability at 500 µM (BJ cells): 79%
viability at 10 µM (glioma (U-118 MG)): 111%
viability at 20 µM (glioma (U-118 MG)): 111%
viability at 50 µM (glioma (U-118 MG)): 116%
viability at 100 µM (glioma (U-118 MG)): 116%
viability at 200 µM (glioma (U-118 MG)): 121%
viability at 300 µM (glioma (U-118 MG)): 121%
viability at 500 µM (glioma (U-118 MG)): 99.9%
highest increase in proliferation (cell metabolic activity) (glioma (U-118 MG); U-118 MG, range given for the named substances together): 115 to 144%
viability at 10 µM [4]: 102%
viability at 20 µM [4]: 96%
viability at 50 µM [4]: 105%
viability at 100 µM [4]: 109%
viability at 200 µM [4]: 117%
viability at 300 µM [4]: 127%
viability at 500 µM [4]: 98.4%
highest increase in proliferation (cell metabolic activity) ([4]; PANC-1, 72 h, range given for the named substances together): 115 to 144%

IC50 (11β-HSD1): 1550 ± 100 nM
inhibition at 10 µM (11β-HSD1; 10 µM, 2.5 h, 37 °C): 71.2 ± 4.77%
inhibition at 10 µM (11β-HSD2): 46.3 ± 1.22%
SMILES: O=C1N=C(NC2CCCC2)SC12CCC2 [Compound 3i, 6-(cyclopentylamino)-5-thia-7-azaspiro[3.4]oct-6-en-8-one]
cell viability, decreases to [1]: 20–65%
viability at 10 µM [1]: 92.2%
viability at 20 µM [1]: 91.2%
viability at 50 µM [1]: 92.9%
viability at 100 µM [1]: 82.5%
viability at 200 µM [1]: 77.5%
viability at 300 µM [1]: 69.8%
viability at 500 µM [1]: 61.5%
viability at 10 µM [2]: 88.1%
viability at 20 µM [2]: 94%
viability at 50 µM [2]: 97.3%
viability at 100 µM [2]: 99%
viability at 200 µM [2]: 101%
viability at 300 µM [2]: 102%
viability at 500 µM [2]: 103%
viability at 10 µM [3]: 87.2%
viability at 20 µM [3]: 91.2%
viability at 50 µM [3]: 89.6%
viability at 100 µM [3]: 85.1%
viability at 200 µM [3]: 72.5%
viability at 300 µM [3]: 69.3%
viability at 500 µM [3]: 58.7%
viability at 10 µM (BJ cells): 102%
viability at 20 µM (BJ cells): 104%
viability at 50 µM (BJ cells): 105%
viability at 100 µM (BJ cells): 111%
viability at 200 µM (BJ cells): 116%
viability at 300 µM (BJ cells): 121%
viability at 500 µM (BJ cells): 115%
viability at 10 µM (glioma (U-118 MG)): 107%
viability at 20 µM (glioma (U-118 MG)): 108%
viability at 50 µM (glioma (U-118 MG)): 111%
viability at 100 µM (glioma (U-118 MG)): 109%
viability at 200 µM (glioma (U-118 MG)): 112%
viability at 300 µM (glioma (U-118 MG)): 109%
viability at 500 µM (glioma (U-118 MG)): 108%
viability at 10 µM [4]: 95.4%
viability at 20 µM [4]: 93.3%
viability at 50 µM [4]: 97.3%
viability at 100 µM [4]: 91.4%
viability at 200 µM [4]: 91.2%
viability at 300 µM [4]: 79.7%
viability at 500 µM [4]: 66.6%
